Experimental data: patent publication US4137225A, “Novel chromogenic enzyme substrates” (Ab Kabi, priority 1975, dated 1979)
≈ marks a conversion by molar mass, not a printed value. Structures can show the parent of a compound that is named as a salt. Where a SMILES comes first, the peptide text is derived from it. [ ]: non-standard residue; d: D form. The star is where a group is joined. pNA = O=[N+]([O-])c1ccc(N*)cc1; Pip = O=C(O)[C@@H]1CCCCN1; Bz = O=C(c1ccccc1)*

Columns and labels:
[1] = system: Thrombin; assay: Relative reaction rate of enzymatic hydrolysis of chromogenic substrates, thrombin (p-nitroaniline release at 405 nm); assay type: biochemical; details: for Rel Reaction rates, T (Thrombin): relative to reference substrate XIV
Source text: (§1) The substrates prepared according to the examples above are used for determination of different enzymes according to the procedure outlined above.
(§2) The principle for the determination is based on the fact that the splitting product formed by enzymatic hydrolysis has a UV-spectrum which is essentially different from that of the substrate. Thus, e.g. all p-nitro anilide substrates according to the invention have absorption maxima around 310 nm with the molar extinction coefficient of about 12000. At 405 nm the absorption of these substrates has almost completely discontinued. p-Nitroaniline which has been split off from the substrate during the enzymatic hydrolysis has an absorption maximum at 380 nm and a molar extinction coefficient of 13200, which at 405 nm only has decreased to 9620. By spectrophotometric determination at 405 nm it is thus easy to follow the amount of p-nitroaniline formed which is proportional to the degree of the enzymatic hydrolysis which in its turn is determined by the active amount of enzyme.
(§3) In the table above the relative reaction rates for the different substrates are stated in relation to a reference substrate chosen for each enzyme. Symbols, reference substrates and their sensitivity for the respective enzymes are according to the following: […]

[2] = system: Trypsin; assay: Relative reaction rate of enzymatic hydrolysis of chromogenic substrates, trypsin (p-nitroaniline release at 405 nm); assay type: biochemical; details: for Rel Reaction rates, Try (Trypsin): relative to reference substrate XIII
Source text: as §1, §2, §3

[3] = biological target: Urokinase (Homo sapiens, UniProt P00749); assay: Relative reaction rate of enzymatic hydrolysis of chromogenic substrates, urokinase (p-nitroaniline release at 405 nm); assay type: biochemical; details: for Rel Reaction rates, UK (Urokinase): relative to reference substrate XIV
Source text: as §1, §2, §3

[4] = Solubility in buffer; assay type: physicochemical; details: aqueous buffer; Buffer = Tris, pH 8.2, I 0.15
Source text: | ^x Buffer = Tris, pH 8.2, I 0.15

[5] = biological target: Plasmin (Homo sapiens, UniProt P00747); assay: Relative reaction rate of enzymatic hydrolysis of chromogenic substrates, plasmin (p-nitroaniline release at 405 nm); assay type: biochemical; details: for Rel Reaction rates, Pl (Plasmin): relative to reference substrate XVIII
Source text: as §1, §2, §3

[6] = system: Kallikrein; assay: Relative reaction rate of enzymatic hydrolysis of chromogenic substrates, kallikrein (p-nitroaniline release at 405 nm); assay type: biochemical; details: for Rel Reaction rates, Kal (Kallikrein): relative to reference substrate XVI
Source text: as §1, §2, §3

Sequence of Plasmin (P00747 97-810): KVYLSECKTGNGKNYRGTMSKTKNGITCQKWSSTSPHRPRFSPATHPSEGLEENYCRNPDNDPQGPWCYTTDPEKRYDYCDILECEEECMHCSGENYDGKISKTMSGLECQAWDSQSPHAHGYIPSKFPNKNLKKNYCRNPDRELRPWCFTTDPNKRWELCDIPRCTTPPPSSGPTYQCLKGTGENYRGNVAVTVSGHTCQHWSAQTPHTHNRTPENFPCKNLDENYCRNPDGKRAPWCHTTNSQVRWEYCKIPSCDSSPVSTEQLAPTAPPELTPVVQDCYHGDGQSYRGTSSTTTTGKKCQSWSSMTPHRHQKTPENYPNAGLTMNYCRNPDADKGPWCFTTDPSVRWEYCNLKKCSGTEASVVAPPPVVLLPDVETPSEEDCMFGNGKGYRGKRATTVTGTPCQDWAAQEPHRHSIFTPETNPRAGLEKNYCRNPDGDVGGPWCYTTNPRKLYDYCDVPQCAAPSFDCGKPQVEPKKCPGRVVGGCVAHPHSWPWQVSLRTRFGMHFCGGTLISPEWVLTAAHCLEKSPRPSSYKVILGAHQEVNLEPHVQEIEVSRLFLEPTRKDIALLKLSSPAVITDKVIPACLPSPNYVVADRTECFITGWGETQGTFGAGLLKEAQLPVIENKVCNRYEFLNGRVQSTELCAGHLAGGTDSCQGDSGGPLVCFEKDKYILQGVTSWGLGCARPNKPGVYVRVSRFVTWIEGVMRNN

Row | SMILES | Rel Reaction rates, T (Thrombin) [1] | Rel Reaction rates, Try (Trypsin) [2] | Rel Reaction rates, UK (Urokinase) [3] | solubility [4] [µg/mL] | Rel Reaction rates, Pl (Plasmin) [5] | Rel Reaction rates, Kal (Kallikrein) [6] | also measured
1 | CC(C)[C@@H](N)C(=O)N1CCCC[C@H]1C(=O)N[C@@H](CCCNC(=N)N)C(=O)Nc1ccc([N+](=O)[O-])cc1 [XIV, H-D-Val-Pip-Arg-pNA . 2 HCl] (H-[dV]-[Pip]-Arg-pNA) | 100 | 70 | 100 | – | – | – | Sensitivity (stated amount of enzyme gives the activity 0.1 nkat) ([1]; Thrombin, 0.1 nkat, ΔOD/min = 0.0254): 0.06 INH; Sensitivity (stated amount of enzyme gives the activity 0.1 nkat) ([3]; Urokinase, 0.1 nkat, ΔOD/min = 0.0254): 40 Ploug E
2 | CC(C)[C@H](N)C(=O)N1CCC[C@H]1C(=O)N[C@@H](CCCNC(=N)N)C(=O)Nc1ccc([N+](=O)[O-])cc1 [H-Val-Pro-Arg-pNA] (H-Val-Pro-Arg-pNA) | 6 | 55 | 15 | 40000 (≈ 81500 µM) | – | – | –
3 | CC(C)[C@H](N)C(=O)N1CCCC[C@H]1C(=O)N[C@@H](CCCNC(=N)N)C(=O)Nc1ccc([N+](=O)[O-])cc1 [H-Val-Pip-Arg-pNA] (H-Val-[Pip]-Arg-pNA) | 4 | 35 | 45 | – | – | – | –
4 | CC[C@H](C)[C@H](N)C(=O)N[C@@H](CC(C)C)C(=O)N[C@@H](CCCCN)C(=O)Nc1ccc([N+](=O)[O-])cc1 [H-Ile-Leu-Lys-pNA] (H-Ile-Leu-Lys-pNA) | – | – | – | – | 35 | – | –
5 | CC(C)C[C@H](NC(=O)[C@@H](N)C(C)C)C(=O)N[C@@H](CCCNC(=N)N)C(=O)Nc1ccc([N+](=O)[O-])cc1 [H-Val-Leu-Arg-pNA] (H-Val-Leu-Arg-pNA) | – | – | – | – | – | 50 | –
6 | CC(C)[C@H](NC(=O)c1ccccc1)C(=O)N1CCC[C@H]1C(=O)N[C@@H](CCCNC(=N)N)C(=O)Nc1ccc([N+](=O)[O-])cc1 [Bz-Val-Pro-Arg-pNA] (Bz-Val-Pro-Arg-pNA) | 6 | 60 | 15 | 300 (≈ 504 µM) | – | – | –
7 | CC[C@H](C)[C@H](NC(=O)c1ccccc1)C(=O)N[C@@H](CC(C)C)C(=O)N[C@@H](CCCCN)C(=O)Nc1ccc([N+](=O)[O-])cc1 [Bz-Ile-Leu-Lys-pNA] (Bz-Ile-Leu-Lys-pNA) | – | – | – | 1000 (≈ 1680 µM) | 130 | – | –
8 | CC(C)C[C@H](NC(=O)[C@@H](NC(=O)c1ccccc1)C(C)C)C(=O)N[C@@H](CCCNC(=N)N)C(=O)Nc1ccc([N+](=O)[O-])cc1 [Bz-Val-Leu-Arg-pNA] (Bz-Val-Leu-Arg-pNA) | – | – | – | 200 (≈ 327 µM) | – | 100 | –
9 | CC(C)C[C@H](NC(=O)[C@H](N)C(C)C)C(=O)N[C@@H](CCCCN)C(=O)Nc1ccc([N+](=O)[O-])cc1 [XVIII, H-D-Val-Leu-Lys-pNA . 2 HCl] (H-[dV]-Leu-Lys-pNA) | – | – | – | > 100000 | 100 | – | Sensitivity (stated amount of enzyme gives the activity 0.1 nkat) ([5]; Plasmin, 0.1 nkat, ΔOD/min = 0.0254): 0.01 CU
10 | CC(C)[C@H](NC(=O)c1ccccc1)C(=O)N1CCCC[C@H]1C(=O)N[C@@H](CCCNC(=N)N)C(=O)Nc1ccc([N+](=O)[O-])cc1 [Bz-Val-Pip-Arg-pNA] (Bz-Val-[Pip]-Arg-pNA) | 4 | 45 | 30 | – | – | – | –
11 | CC(C)C[C@H](NC(=O)[C@H](N)C(C)C)C(=O)N[C@@H](CCCNC(=N)N)C(=O)Nc1ccc([N+](=O)[O-])cc1 [XVI, H-D-Val-Leu-ARg-pNA . 2 HCl] (H-[dV]-Leu-Arg-pNA) | – | – | – | 600000 | – | 100 | Sensitivity (stated amount of enzyme gives the activity 0.1 nkat) ([6]; Kallikrein, 0.1 nkat, ΔOD/min = 0.0254): 0.2 Be
12 | CC(C)[C@@H](N)C(=O)N1CCC[C@H]1C(=O)N[C@@H](CCCNC(=N)N)C(=O)Nc1ccc([N+](=O)[O-])cc1 [XIII, H-D-Val-Pro-Arg-pNA . 2 HCl] (H-[dV]-Pro-Arg-pNA) | 80 | 100 | 95 | 100000 | – | – | Sensitivity (stated amount of enzyme gives the activity 0.1 nkat) ([2]; Trypsin, 0.1 nkat, ΔOD/min = 0.0254): 0.03 µg (Novo)
13 | CC(C)C[C@H](NC(=O)[C@@H](NC(=O)c1ccccc1)C(C)C)C(=O)N[C@@H](CCCCN)C(=O)Nc1ccc([N+](=O)[O-])cc1 [Bz-Val-Leu-Lys-pNA] (Bz-Val-Leu-Lys-pNA) | – | – | – | 500 (≈ 858 µM) | 100 | – | –
14 | CC(C)C[C@H](NC(=O)[C@@H](N)C(C)C)C(=O)N[C@@H](CCCCN)C(=O)Nc1ccc([N+](=O)[O-])cc1 [H-Val-Leu-Lys-pNA] (H-Val-Leu-Lys-pNA) | – | – | – | – | 25 | – | –
15 | CC[C@H](C)[C@H](N)C(=O)N[C@@H](CC(C)C)C(=O)N[C@@H](CCCNC(=N)N)C(=O)Nc1ccc([N+](=O)[O-])cc1 [H-Ile-Leu-Arg-pNA] (H-Ile-Leu-Arg-pNA) | – | – | – | – | 10 | 20 | –
16 | CC[C@@H](C)[C@@H](N)C(=O)N[C@@H](CC(C)C)C(=O)N[C@@H](CCCCN)C(=O)Nc1ccc([N+](=O)[O-])cc1 [XVII, H-D-Ile-Leu-Lys-pNA . 2 HCl] (H-[dI]-Leu-Lys-pNA) | – | – | – | 20000 | 100 | – | –
17 | CC[C@H](C)[C@H](NC(=O)c1ccccc1)C(=O)N[C@@H](CC(C)C)C(=O)N[C@@H](CCCNC(=N)N)C(=O)Nc1ccc([N+](=O)[O-])cc1 [Bz-Ile-Leu-Arg-pNA] (Bz-Ile-Leu-Arg-pNA) | – | – | – | 200 (≈ 320 µM) | 55 | 100 | –
18 | CC[C@@H](C)[C@@H](N)C(=O)N[C@@H](CC(C)C)C(=O)N[C@@H](CCCNC(=N)N)C(=O)Nc1ccc([N+](=O)[O-])cc1 [XV, H-D-Ile-Leu-Arg-pNA . 2 HCl] (H-[dI]-Leu-Arg-pNA) | – | – | – | 4000 | 75 | 100 | –
